“Also recorded” adds a separate entry of the source.
How the values were obtained:
[1] = test system: NZBWF1 mice; assay: Serum blood urea nitrogen (BUN) at termination; format: in vivo
Experimental: Lymphocyte counts were measured from whole blood taken at 23, 31, and 36.5 weeks using flow cytometry. Cells were gated for CD4+ T cells, CD8+ T cells, and CD19+ B cells. […] Serum blood urea nitrogen (BUN) was also measured at termination to assess kidney function.
As in Example 4, serum blood urea nitrogen (BUN) was measured at termination to assess kidney function.

[2] = test system: NZBWF1 mice; assay: Proteinuria scores (urine dip sticks) in NZBWF1 SLE mouse model; format: in vivo; details: for Proteinuria scores relative to vehicle: 3.0 mg/kg PO QD; for Proteinuria scores compared to vehicle: 0.3, 1.0 and 3.0 mg/kg PO QD
Source text: Six groups of NZBWF1 mice (Jackson Laboratories, stock #100008) were used in the study and were acclimated to the research facility for 7 weeks prior to the start of the study. Weekly measurements of proteinuria (excess serum proteins present in the urine) and body weight began at 20 weeks of age. At 23 weeks of age, the mice were assigned to groups in a balanced manner in order to achieve average body weight and average proteinuria measurements across the groups. One “naive” group consisting of 10 mice was euthanized at the start of treatment and used as a source of tissue for analysis. Treatment began at 23 weeks of age.
The three groups dosed with compound 148 received 0.3, 1.0, and 3.0 mg/kg PO QD, respectively (20 mice per dosage). Surviving animals were sacrificed at 42 weeks. […] Disease development was evaluated as disclosed in the following examples.
High levels of proteinuria are a strong indicator of SLE. […] Proteinuria was expressed as a score from 0 to 4 (0=no protein; 1=traces of protein (<30 mg/dL); 2=30-100 mg/dL; 3=100-500 mg/dL; 4=>500 mg/dL).
As in Example 3, proteinuria was measured weekly beginning at 20 weeks using urine dip sticks (Roche Diagnostics Chemstrip 2GP, cat. no. 11895397160, per manufacturer's protocol). Proteinuria was expressed as a score from 0 to 4 (0=no protein; 1=traces of protein (<30 mg/dL); 2=30-100 mg/dL; 3=100-500 mg/dL; 4=>500 mg/dL). […] (In this and the following experiments, the number of mice per group was approximately 20, and statistics were determined by one-way ANOVA with Dunnett's comparison.)

[3] = test system: anti-dsDNA antibodies; assay: Serum anti-dsDNA antibody titers by ELISA; format: in vivo; details: NZBWF1 mice
Experimental: Serum anti-dsDNA antibody titers are used as an indicator of SLE state (see, e.g., Kavanaugh et al., “Guidelines for Clinical Use of the Antinuclear Antibody Test and Tests for Specific Autoantibodies to Nuclear Antigens”, Archives of Pathology & Laboratory Medicine, 124:1, 71-81 (2000)) in most (although not all) patient populations, (see, Isenberg et al., Rheumatology 46:1052-1056, 2007). Titers were measured at 23, 31, 36.5, and 42 weeks. ELISA was performed using an anti-dsDNA ELISA kit (Shibayagi Co., Ltd., cat. no. RSHAKRDD061) following manufacturer's protocol. Results were expressed as optical density (OD) and as arbitrary units per mL. The ELISA standard curve was generated from a pool of sera from mice used a previous study with a known high concentration of anti-dsDNA antibodies. The highest concentration used in the standard curve was 1:100 of that pooled sera. All test samples were diluted 1000-fold for testing. Data was analyzed using http://www.elisaanalysis.com.
As in Example 8, serum anti-dsDNA antibody titers were measured at 22, 30, 36, and 42 weeks. ELISA was performed using an anti-dsDNA ELISA kit.

[4] = test system: splenocytes; assay: Splenocyte counts and immunophenotyping of spleen cell subtypes; format: in vivo, mice; details: NZBWF1 mice; for Total splenocyte counts relative to vehicle: 42 weeks; for Percent Reduction vs Vehicle: Activated CD4 + T cells / Percent Reduction vs Vehicle: CD4 + T cells / Percent Reduction vs Vehicle: CD8 + T cells / Percent Reduction vs Vehicle: CD11b + Ly6C^hi monocytes / Percent Reduction vs Vehicle: CD19 + B cells / Percent Reduction vs Vehicle: Follicular B cells / Percent Reduction vs Vehicle: Germinal Center B cells / Percent Reduction vs Vehicle: Marginal Zone B cells / Percent Reduction vs Vehicle: Marginal Zone Progenitor B cells / Percent Reduction vs Vehicle: Naive CD4 + T cells / Percent Reduction vs Vehicle: Plasma cells / Percent Reduction vs Vehicle: Tfh cells / Percent Reduction vs Vehicle: Total splenocytes / Percent Reduction vs Vehicle: Treg cells / Percent Reduction vs Vehicle: pDC: spleen
Experimental: To determine the effects of compound 148 on inflammatory infiltrate in the spleen, spleens were weighed at 42 weeks. […] Splenocyte suspensions were then prepared. RBCs were lysed and splenocytes were counted.
Plasmacytoid dendritic cells (pDC) express IFNAR1 (Interferon alpha receptor 1), which amplifies the proinflammatory response to type 1 interferons (e.g., IFNα) that are associated with lupus. IFNAR activity is considered to be an important modulator of signal strength and duration in pDC and subsequent activation of T and B cells in the inflammatory response. pDC counts were measured at termination.
To determine the effects of compound 5 on inflammatory infiltrate in the spleen, spleens were weighed at 42 weeks. […] Splenocyte suspensions were prepared for all three doses. RBCs were lysed and splenocytes were counted.

[5] = test system: NZBWF1 mice; assay: Kidney lesion histology scoring (glomerular, tubular and interstitial lesions); format: in vivo; details: for Tubular and interstitial lesions: 0.3, 1.0, 3.0 mg/kg PO QD
Source text: Kidney lesions are another indicator of SLE progression. Kidney slides from test mice were stained with H&E and PAS, to evaluate interstitial infiltrates, tubular atrophy, and interstitial fibrosis (collectively, “tubular and interstitial lesions”), mesangial expansion, endocapillary and extracapillary proliferation, glomerular deposits, (collectively, “glomerular lesions”). Each lesion subtype was scored using a 4 point scale: 0=not present, 1=mild, 2=moderate and 3=severe. Average scores were calculated by multiplying the incidence of each grade by the value of the grade for each of the seven lesions and then adding the scores for the group. Thus, an incidence of 3 animals for grade 3 of a lesion equals a score of 9. The scores were then divided by the number of animals scored in the group.
All slides were scored blind by assigning a random number to each animal and then affixing a temporary label with the random number to the slides. Scores were recorded using Graham StarTox software, version 3.1.0. The StarTox software has a setting that limits the screen display to the random number only, without group or animal number information for use while reading the slides.
As in Example 5, left kidneys were weighed (FIG. 43) following termination at 42 weeks.

[6] = 3.0 mg/kg PO QD (compound 148 study)

## CC(C)Oc1ccc(-c2nc(-c3cccc4c3CC[C@@H]4N)no2)cc1C#N [compound 148, (S)-5-(3-(1-amino-2,3-dihydro-1H-inden-4-yl)-1,2,4-oxadiazol-5-yl)-2-isopropoxy-benzonitrile]
[1]; 3 mg/kg PO QD, p<0.05
  Serum BUN at termination vs vehicle: significant reduction in serum BUN
[2]; weeks 23-42, p<0.05, 3 mg/kg
  Proteinuria scores relative to vehicle: significant improvement relative to vehicle; also recorded: efficacy similar to cyclophosphamide
[2]; weeks 23-42
  Proteinuria scores compared to vehicle: lower proteinuria scores in a dose-dependent fashion
[3]; all three dosages 0.3, 1.0, 3.0 mg/kg PO QD, ELISA optical density
  Serum anti-dsDNA antibody titers: decreased antibody titers at week 29; also recorded: decrease was not sustained over the course of the study
[4]; all groups 0.3, 1.0, 3.0 mg/kg PO QD (compound 148 study)
  Total splenocyte counts relative to vehicle: reduced
[4]; at termination, 3.0 mg/kg PO QD (compound 148 study)
  Decrease of splenic pDC counts relative to vehicle: 62%
[4]; [6]
  Decrease in splenic CD4+ T cell population: 75%
  Decrease in splenic Follicular (FO) B cells: 79%
  Reduction in splenic CD8+ T cell population: 62%
  Reduction in splenic CD19+ B cell population: 67%
  Reduction in splenic Germinal Center (GC) B cell population: 51%
  Reduction in splenic Marginal Zone (MZ) B cell population: 61%
  Reduction in splenic activated CD4+ T cell population: 75%
  Reduction in splenic naïve CD4+ T cells: 81%
  Reduction in splenic plasma cell population: 30%
[5]; 0.3 mg/kg PO QD (compound 148 study)
  Glomerular lesion score: glomerular lesion score similar to that of the vehicle control
[5]; 1.0 mg/kg and 3.0 mg/kg PO QD (compound 148 study)
  Severity of glomerular lesions: dose-independent decrease in the severity of glomerular lesions
[5]; p<0.05 (compound 148 study)
  Tubular and interstitial lesions: dose-dependent decrease in tubular and interstitial lesions; also recorded: not statistically different from treatment with cyclophosphamide
[5]; all three treatment groups 0.3, 1.0, 3.0 mg/kg PO QD
  Combined kidney lesion score (glomerular plus tubular and interstitial) vs vehicle: dose-related decrease in combined kidney lesion score

## CC(C)Oc1ccc(-c2nc(-c3cccc4c3CC[C@@H]4NCCO)no2)cc1C#N [compound 5, (S)-5-(3-(1-(2-hydroxyethylamino)-2,3-dihydro-1H-inden-4-yl)-1,2,4-oxadiazol-5-yl)-2-isopropoxy benzonitrile]
[1]; all doses 0.3, 1.0, 3.0 mg/kg PO QD
  Serum BUN at termination vs vehicle: significant reduction in serum BUN
[2]; weeks 22-42
  Proteinuria scores relative to vehicle: significant improvement relative to vehicle
  Proteinuria scores compared to vehicle: lower proteinuria scores in a dose-dependent fashion
[3]; 3 mg/kg PO QD, week 42, less than cyclophosphamide
  Serum anti-dsDNA antibody titers: decreased antibody titers at week 42
[4]; all groups 0.3, 1.0, 3.0 mg/kg PO QD (compound 5 study)
  Total splenocyte counts relative to vehicle: reduced
[4]; 0.3 mg/kg PO QD
  Percent Reduction vs Vehicle: Activated CD4 + T cells: 46%
  Percent Reduction vs Vehicle: CD4 + T cells: 51%
  Percent Reduction vs Vehicle: CD8 + T cells: 46%
  Percent Reduction vs Vehicle: CD11b + Ly6C^hi monocytes: −17%
  Percent Reduction vs Vehicle: CD19 + B cells: 43%
  Percent Reduction vs Vehicle: Follicular B cells: 43%
  Percent Reduction vs Vehicle: Germinal Center B cells: 46%
  Percent Reduction vs Vehicle: Marginal Zone B cells: 20%
  Percent Reduction vs Vehicle: Marginal Zone Progenitor B cells: 75%
  Percent Reduction vs Vehicle: Naive CD4 + T cells: 73%
  Percent Reduction vs Vehicle: Plasma cells: 50%
  Percent Reduction vs Vehicle: Tfh cells: 35%
  Percent Reduction vs Vehicle: Total splenocytes: 35%
  Percent Reduction vs Vehicle: Treg cells: 37%
  Percent Reduction vs Vehicle: pDC: 49%
[4]; 1.0 mg/kg PO QD
  Percent Reduction vs Vehicle: Activated CD4 + T cells: 72%
  Percent Reduction vs Vehicle: CD4 + T cells: 75%
  Percent Reduction vs Vehicle: CD8 + T cells: 77%
  Percent Reduction vs Vehicle: CD11b + Ly6C^hi monocytes: 34%
  Percent Reduction vs Vehicle: CD19 + B cells: 69%
  Percent Reduction vs Vehicle: Follicular B cells: 66%
  Percent Reduction vs Vehicle: Germinal Center B cells: 57%
  Percent Reduction vs Vehicle: Marginal Zone B cells: 63%
  Percent Reduction vs Vehicle: Marginal Zone Progenitor B cells: 88%
  Percent Reduction vs Vehicle: Naive CD4 + T cells: 91%
  Percent Reduction vs Vehicle: Plasma cells: 66%
  Percent Reduction vs Vehicle: Tfh cells: 51%
  Percent Reduction vs Vehicle: Total splenocytes: 50%
  Percent Reduction vs Vehicle: Treg cells: 58%
  Percent Reduction vs Vehicle: pDC: 72%
[4]; 3.0 mg/kg PO QD
  Percent Reduction vs Vehicle: Activated CD4 + T cells: 80%
  Percent Reduction vs Vehicle: CD4 + T cells: 81%
  Percent Reduction vs Vehicle: CD8 + T cells: 75%
  Percent Reduction vs Vehicle: CD11b + Ly6C^hi monocytes: 28%
  Percent Reduction vs Vehicle: CD19 + B cells: 74%
  Percent Reduction vs Vehicle: Follicular B cells: 72%
  Percent Reduction vs Vehicle: Germinal Center B cells: 64%
  Percent Reduction vs Vehicle: Marginal Zone B cells: 54%
  Percent Reduction vs Vehicle: Marginal Zone Progenitor B cells: 85%
  Percent Reduction vs Vehicle: Naive CD4 + T cells: 88%
  Percent Reduction vs Vehicle: Plasma cells: 70%
  Percent Reduction vs Vehicle: Tfh cells: 68%
  Percent Reduction vs Vehicle: Total splenocytes: 60%
  Percent Reduction vs Vehicle: Treg cells: 81%
  Percent Reduction vs Vehicle: pDC: 68%
[5]; 0.3 mg/kg PO QD (compound 5 study)
  Glomerular lesion score: glomerular lesion score less than to that of the vehicle control, but not significant
[5]; 1.0 mg/kg and 3.0 mg/kg PO QD (compound 5 study)
  Severity of glomerular lesions: dose-independent decrease in the severity of glomerular lesions
[5]; 3.0 mg/kg PO QD (compound 5 study)
  Tubular and interstitial lesions compared to cyclophosphamide: not statistically different from treatment with cyclophosphamide
[5]; significant at 1.0 and 3.0 mg/kg (compound 5 study)
  Tubular and interstitial lesions: dose-dependent decrease in tubular and interstitial lesions

— patent US11278526B2, “Compounds and methods for treating lupus” (RECEPTOS LLC, priority 2016, dated 2022)
